# From patent US5424309A, “N-substituted acylamino acid compounds, process for their production and their use” (Banyu Pharmaceutical Co., Ltd., priority 1988, dated 1995)
# Target: T1, human plasma renin (Homo sapiens, UniProt P00797)
# T1 construct: from tissue; host or cells: human plasma
# T1 sequence (P00797 67-406): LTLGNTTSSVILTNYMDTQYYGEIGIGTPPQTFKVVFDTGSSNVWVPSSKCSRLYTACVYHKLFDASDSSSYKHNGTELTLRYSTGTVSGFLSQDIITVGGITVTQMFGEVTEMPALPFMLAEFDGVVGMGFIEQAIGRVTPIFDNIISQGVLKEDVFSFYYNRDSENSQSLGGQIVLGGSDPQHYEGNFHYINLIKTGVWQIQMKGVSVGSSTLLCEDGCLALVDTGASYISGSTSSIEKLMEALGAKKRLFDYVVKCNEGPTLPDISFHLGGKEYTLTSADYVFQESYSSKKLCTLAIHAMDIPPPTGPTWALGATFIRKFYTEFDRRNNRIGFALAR
# Test: Renin inhibiting activities (human plasma, angiotensin I by radio immunoassay)
# Assay type: biochemical
# Details: pH7.4, 37° C., one hour, read-out: IC50 (50 % inhibition concentrations), renin inhibiting activity
# Method: To 156 μl of a 0.2M sodium phosphate buffer solution (pH7.4), 40 μl of a solution mixture of 34 mM 8-hydroxyquinoline and 100 mM disodium ethylenediamine tetraacetate, 4 μl of dimethyl sulfoxide or a dimethyl sulfoxide solution of test compound and 200 μl of human plasma were added and reacted at 37° C. for one hour. Then, pepstatin was added thereto to terminate the reaction, and the amount of the resulting angiotension I was measured by radio immunoassay whereby the inhibiting activity was determined.
row,SMILES,IC50 [nM]
1,"CCCC[C@H](NC(=O)[C@H](Cc1cccc2ccccc12)CS(=O)(=O)CC(COC)OC(C)=O)C(=O)N[C@@H](CC1CCCCC1)[C@@H](O)[C@@H](O)CN1CCOCC1 (mixture of isomers) [Example 28, (2S,3R,4S)-4-{L-N-[(2S)-3-[(2RS)-2-acetoxy-3-methoxypropyl]sulfonyl-2-(1-naphthylmethyl)propionyl]norleucyl}amino-5-cyclohexyl-1-morpholino-2,3-pentanediol]",1.9
2,"CCCC[C@H](NC(=O)[C@H](Cc1cccc2ccccc12)CS(=O)(=O)CCOC(=O)OCC)C(=O)N[C@@H](CC1CCCCC1)[C@@H](O)[C@@H](O)CN1CCOCC1 [Example 5, (2S,3R,4S)-4-{L-N-[(2S)-3-(2-ethoxycarbonyloxyethyl)sulfonyl-2-(1-naphthylmethyl)propionyl]norleucyl}amino-5-cyclohexyl-1-morpholino-2,3-pentanediol]",5
3,"CCCC[C@H](NC(=O)[C@H](Cc1cccc2ccccc12)CS(=O)(=O)CC(COC(C)=O)=NO)C(=O)N[C@@H](CC1CCCCC1)[C@@H](O)[C@@H](O)CN1CCOCC1 [Example 42, (2S,3R,4S)-4-{L-N-[(2S)-3-(3-acetoxy-2-hydroxyiminopropyl)sulfonyl-2-(1-naphthylmethyl)propionyl]norleucyl}amino-5-cyclohexyl-1-morpholino-2,3-pentanediol]",6.1
4,CC(=O)OCCS(=O)(=O)C[C@@H](Cc1cccc2ccccc12)C(=O)N[C@@H](Cc1c[nH]cn1)C(=O)N[C@@H](CC1CCCCC1)[C@@H](O)[C@@H](O)CN1CCOCC1 [Example 30],1.9
5,"CCCC[C@H](NC(=O)[C@@H](CSCC(COC(C)=O)OC)Cc1cccc2ccccc12)C(=O)N[C@@H](CC1CCCCC1)[C@@H](O)[C@@H](O)CN1CCOCC1 (mixture of isomers) [Example 27, (2S,3R,4S)-4-{L-N-[(2S)-3-[(2RS)-3-acetoxy-2-methoxypropyl]thio-2-(1-naphthylmethyl)propionyl]norleucyl}amino-5-cyclohexyl-1-morpholino-2,3-pentanediol]",2.2
6,"CCCC[C@H](NC(=O)[C@H](Cc1cccc2ccccc12)CS(=O)(=O)C1CCC(OC(C)=O)C1)C(=O)N[C@@H](CC1CCCCC1)[C@@H](O)[C@@H](O)CN1CCOCC1 (single isomer, unassigned) [Example 33 (having a low Rf value)]",1.1
7,"CCCC[C@H](NC(=O)[C@H](Cc1cccc2ccccc12)CS(=O)(=O)CC(COC(=O)CC)OC(C)=O)C(=O)N[C@@H](CC1CCCCC1)[C@@H](O)[C@@H](O)CN1CCOCC1 (mixture of isomers) [Example 13, (2S,3R,4S)-4-{L-N-[(2S)-3-[(2RS)-2-acetoxy-3-propionyloxypropyl]sulfonyl-2-(1-naphthylmethyl)propionyl]norleucyl}amino-5-cyclohexyl-1-morpholino-2,3-pentanediol]",2
8,"CCCC[C@H](NC(=O)[C@H](Cc1cccc2ccccc12)C[S+]([O-])CC(COC(C)=O)OC(C)=O)C(=O)N[C@@H](CC1CCCCC1)[C@@H](O)[C@@H](O)CN1CCOCC1 (mixture of isomers) [Example 6 (having a low Rf value), (2S,3R,4S)-4-{L-N-[(2S)-3-[(2RS)-2,3-diacetoxypropyl]sulfinyl-2-(1-naphthylmethyl)propionyl]norleucyl}amino-5-cyclohexyl-1-morpholino-2,3-pentanediol]",4.1
9,"CCCC[C@H](NC(=O)[C@H](Cc1cccc2ccccc12)C[S+]([O-])CC(COC(C)=O)OC(C)=O)C(=O)N[C@@H](CC1CCCCC1)[C@@H](O)[C@@H](O)CN1CCOCC1 (mixture of isomers) [Example 6 (having a high Rf value), (2S,3R,4S)-4-{L-N-[(2S)-3-[(2RS)-2,3-diacetoxypropyl]sulfinyl-2-(1-naphthylmethyl)propionyl]norleucyl}amino-5-cyclohexyl-1-morpholino-2,3-pentanediol]",6
